According to patent US20130158031A1 (SU ZHOU JING HONG BIOTECH CO., LTD., priority 2011, published 2013):

Molecular target: T1, human PDE10A (Homo sapiens, UniProt Q9Y233)
T1 construct: Full-length human PDE10A cDNA is amplified using PCR; made in house; host or cells: HEK293 cells, transiently transfected with Lipofectamine 2000; supernatant of the sonicated lysate after 10,000 g
Experiment: PDE10A inhibition assay (IMAP fluorescence polarization)
Assay type: biochemical
Conditions: hPDE10A enzyme from transfected HEK293 cell lysate, fluorescein-labeled cAMP/cGMP
Protocol: Full-length human PDE10A cDNA is amplified using PCR and cloned into pcDNA3.0 vector (Invitrogen). After verified by DNA sequencing, the plasmid is transfected into HEK293 cell using the Lipofectamine 2000 reagent (Invitrogen). Cells are subsequently harvested and sonicated in cell lysis buffer. After centrifuged at 10,000 g for 20 minutes, supernatant containing cytosolic hPDE10A enzyme is collected and stored at −80° C. PDE10A inhibition assay is performed using the IMAP fluorescence polarization assay (Molecular Devices) according to the manufacturer's protocols. A fixed amount of the hPDE10A enzyme is pretreated with the test compounds, following the addition of fluorescein-labeled cAMP/cGMP. After 1 hour incubation, the IMAP binding reagent is added and incubated for another hour. The fluorescence polarization is then quantified with a fluorescence polarization reader Envision from Perkin Elmer. IC50 values are calculated using the Prism program (GraphPad Software).

T1 sequence (Q9Y233 1-779 isoform Q9Y233-1): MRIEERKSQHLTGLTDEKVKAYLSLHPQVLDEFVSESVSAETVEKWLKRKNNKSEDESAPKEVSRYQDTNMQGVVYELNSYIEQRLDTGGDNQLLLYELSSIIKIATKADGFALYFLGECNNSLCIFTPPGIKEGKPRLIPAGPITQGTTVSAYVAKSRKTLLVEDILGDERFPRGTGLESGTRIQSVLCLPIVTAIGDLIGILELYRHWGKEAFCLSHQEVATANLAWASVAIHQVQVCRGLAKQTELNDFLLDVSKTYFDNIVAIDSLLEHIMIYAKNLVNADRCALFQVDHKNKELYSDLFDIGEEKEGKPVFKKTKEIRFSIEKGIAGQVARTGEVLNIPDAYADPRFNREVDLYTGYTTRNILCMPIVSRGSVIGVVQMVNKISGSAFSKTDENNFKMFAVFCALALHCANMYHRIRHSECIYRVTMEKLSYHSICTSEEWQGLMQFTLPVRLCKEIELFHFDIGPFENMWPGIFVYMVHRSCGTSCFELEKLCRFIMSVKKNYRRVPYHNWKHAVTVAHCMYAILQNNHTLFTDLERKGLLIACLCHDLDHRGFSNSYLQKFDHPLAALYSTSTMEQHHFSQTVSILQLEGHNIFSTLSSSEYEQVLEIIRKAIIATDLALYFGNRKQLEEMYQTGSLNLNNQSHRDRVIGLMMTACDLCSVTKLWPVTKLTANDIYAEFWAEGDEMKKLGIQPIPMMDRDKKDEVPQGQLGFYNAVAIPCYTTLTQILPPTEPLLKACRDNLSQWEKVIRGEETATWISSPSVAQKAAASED

| SMILES | IC50 [nM] |
| --- | --- |
| Cn1ncc(-c2ccc(C#Cc3ccc4ccccc4n3)cc2)c1-c1ccncc1 [Example 37, 2-((4-(1-methyl-5-(pyridin-4-yl)-1H-pyrazol-4-yl)phenyl)ethynyl)quinoline] | 10 to 100 |
| Cc1cccc(C#Cc2ccc(-c3nn(C)cc3-c3ccncc3)cc2)n1 [Example 3] | ≤ 10 |
| FC(F)(F)Cn1cc(-c2ccncc2)c(-c2ccc(C#Cc3ccc4ccccc4n3)cc2)n1 [Example 18] | ≤ 10 |
| COCCn1cc(-c2ccncc2)c(-c2ccc(C#Cc3ccc4ccccc4n3)cc2)n1 [Example 16, 2-((4-(1-(2-methoxyethyl)-4-(pyridin-4-yl)-1H-pyrazol-3-yl)phenyl)ethynyl)quinoline] | ≤ 10 |
| CCn1cc(-c2ccncc2)c(-c2ccc(C#Cc3ccc4ccccc4n3)nc2)n1 [Example 31, 2-((5-(1-ethyl-4-(pyridin-4-yl)-1H-pyrazol-3-yl)pyridin-2-yl)ethynyl)quinoline] | ≤ 10 |
| Cn1cc(-c2ccncc2)c(-c2ccc(C#Cc3ncc4ccccc4n3)cc2)n1 [Example 2, 2-((4-(1-methyl-4-(pyridin-4-yl)-1H-pyrazol-3-yl)phenyl)ethynyl)quinazoline] | ≤ 10 |
| CNCCn1cc(-c2ccncc2)c(-c2ccc(C#Cc3ccc4ccccc4n3)cc2)n1 [Example 14, N-methyl-2-(4-(pyridin-4-yl)-3-(4-(quinolin-2-ylethynyl)phenyl)-1H-pyrazol-1-yl)ethanamine] | ≤ 10 |
| Cn1cc(-c2ccncc2)c(-c2ccc(C#Cc3ccc4ccccc4n3)nc2)n1 [Example 24, 2-(5-(1-methyl-4-pyridin-4-yl-1H-pyrazol-3-yl)pyridin-2-ylethynyl)quinoline] | ≤ 10 |
| Cn1cc(-c2ccncc2)c(-c2ccc(C#Cc3cccc(C(F)(F)F)n3)cc2)n1 [Example 8, 2-((4-(1-methyl-4-(pyridin-4-yl)-1H-pyrazol-3-yl)phenyl)ethynyl)-6-(trifluoromethyl)pyridine] | 100 to 1000 |
| C(#Cc1ccc2ccccc2n1)c1ccc(-c2ncncc2-c2ccncc2)cc1 [Example 20, 2-((4-(5-(pyridin-4-yl)pyrimidin-4-yl)phenyl)ethynyl)quinoline] | 10 to 100 |
| C(#Cc1ccc2ccccc2n1)c1ccc(-c2c[nH]nc2-c2ccncc2)cc1 [Example 35, 2-((4-(3-(pyridin-4-yl)-1H-pyrazol-4-yl)phenyl)ethynyl)quinoline] | ≤ 10 |
| C(#Cc1ccc2ccccc2n1)c1ccc(-n2cnnc2-c2ccncc2)cc1 [Example 23, 2-((4-(3-(pyridin-4-yl)-4H-1,2,4-triazol-4-yl)phenyl)ethynyl)quinoline] | 10 to 100 |
| COc1ccc(-c2cn(C)nc2-c2ccc(C#Cc3ccc4ccccc4n3)cc2)cc1 [Example 33, 2-((4-(4-(4-methoxyphenyl)-1-methyl-1H-pyrazol-3-yl)phenyl)ethynyl)quinoline] | 10 to 100 |
| Cn1cc(-c2ccncc2)c(-c2ccc(C#Cc3ccc(C4CC4)cn3)cc2)n1 [Example 7, 5-cyclopropyl-2-((4-(1-methyl-4-(pyridin-4-yl)-1H-pyrazol-3-yl)phenyl)ethynyl)pyridine] | ≤ 10 |
| Cn1cc(-c2ccncc2)c(-c2ccc(C#Cc3ccc4ccccc4n3)cn2)n1 [Example 27, 2-((6-(1-methyl-4-(pyridin-4-yl)-1H-pyrazol-3-yl)pyridin-3-yl)ethynyl)quinoline] | ≤ 10 |
| Cn1cc(-c2ccncc2)c(-c2ccc(C#Cc3ccc4ccccc4n3)cc2F)n1 [Example 25, 2-((3-fluoro-4-(1-methyl-4-(pyridin-4-yl)-1H-pyrazol-3-yl)phenyl)ethynyl)quinoline] | ≤ 10 |
| Cc1ccc(C#Cc2ccc(-c3nn(C)cc3-c3ccncc3)cc2)nc1 [Example 6] | ≤ 10 |
| FCCn1cc(-c2ccncc2)c(-c2ccc(C#Cc3ccc4ccccc4n3)cc2)n1 [Example 19, 2-((4-(1-(2-fluoroethyl)-4-(pyridin-4-yl)-1H-pyrazol-3-yl)phenyl)ethynyl)quinoline] | ≤ 10 |

| SMILES | IC50 [nM] |
| --- | --- |
| FCCn1cc(-c2ccncc2)c(-c2ccc(C#Cc3ccc4ccccc4n3)nc2)n1 [Example 32, 2-((5-(1-(2-fluoroethyl)-4-(pyridin-4-yl)-1H-pyrazol-3-yl)pyridin-2-yl)ethynyl)quinoline] | ≤ 10 |
| C(#Cc1ccc2ccccc2n1)c1ccc(-c2nn(C3CC3)cc2-c2ccncc2)cc1 [Example 12, 2-((4-(1-cyclopropyl-4-(pyridin-4-yl)-1H-pyrazol-3-yl)phenyl)ethynyl)quinoline] | ≤ 10 |
| Cn1cc(-c2ccncc2)c(-c2ccc(C#Cc3cccc(C4CC4)n3)cc2)n1 [Example 5, 2-cyclopropyl-6-((4-(1-methyl-4-(pyridin-4-yl)-1H-pyrazol-3-yl)phenyl)ethynyl)pyridine] | 10 to 100 |
| Cn1cc(-c2ccc(O)cc2)c(-c2ccc(C#Cc3ccc4ccccc4n3)cc2)n1 [Example 34, 4-(1-methyl-3-(4-(quinolin-2-ylethynyl)phenyl)-1H-pyrazol-4-yl)phenol] | 10 to 100 |
| CCn1cc(-c2ccncc2)c(-c2ccc(C#Cc3ccc4ccccc4n3)cc2)n1 [Example 15, 2-((4-(1-ethyl-4-(pyridin-4-yl)-1H-pyrazol-3-yl)phenyl)ethynyl)quinoline] | ≤ 10 |
| C(#Cc1ccc2ccccc2n1)c1ccc(-n2ncnc2-c2ccncc2)cc1 [Example 21, 2-((4-(5-(pyridin-4-yl)-1H-1,2,4-triazol-1-yl)phenyl)ethynyl)quinoline] | 10 to 100 |
| CCc1cccc(C#Cc2ccc(-c3nn(C)cc3-c3ccncc3)cc2)n1 [Example 4, 2-Ethyl-6-((4-(1-methyl-4-(pyridin-4-yl)-1H-pyrazol-3-yl)phenyl)ethynyl)pyridine] | ≤ 10 |
| COc1cccc(C#Cc2ccc(-c3nn(C)cc3-c3ccncc3)cc2)n1 [Example 10, 2-methoxy-6-((4-(1-methyl-4-(pyridin-4-yl)-1H-pyrazol-3-yl)phenyl)ethynyl)pyridine] | ≤ 10 |
| OCCn1cc(-c2ccncc2)c(-c2ccc(C#Cc3ccc4ccccc4n3)cc2)n1 [Example 13, 2-(4-(pyridin-4-yl)-3-(4-(quinolin-2-ylethynyl)phenyl)-1H-pyrazol-1-yl)ethanol] | ≤ 10 |
| CN(C)CCn1cc(-c2ccncc2)c(-c2ccc(C#Cc3ccc4ccccc4n3)cc2)n1 [Example 17, N,N-dimethyl-2-(4-(pyridine-4-yl)-3-(4-(quinolin-2-ylethynyl)phenyl)-1H-pyrazol-1-yl)ethanamine] | ≤ 10 |
| C(#Cc1ccc2ccccc2n1)c1ccc(-n2nccc2-c2ccncc2)cc1 [Example 22, 2-((4-(5-(pyridin-4-yl)-1H-pyrazol-1-yl)phenyl)ethynyl)quinoline] | ≤ 10 |
| Cn1cc(-c2ccncc2)c(-c2ccc(C#Cc3ccc(C(F)(F)F)cn3)cc2)n1 [Example 9, 2-((4-(1-methyl-4-(pyridin-4-yl)-1H-pyrazol-3-yl)phenyl)ethynyl)-5-(trifluoromethyl)pyridine] | 100 to 1000 |
| C(#Cc1ccc2ccccc2n1)c1ccc(-c2n[nH]cc2-c2ccncc2)cc1 [Example 11, 2-((4-(4-(pyridin-4-yl)-1H-pyrazol-3-yl)phenyl)ethynyl)quinoline] | ≤ 10 |
| Cn1cc(-c2ccncc2)c(-c2ccc(C#Cc3ccc4ccccc4n3)cc2)n1 [Example 1, 2-((4-(1-methyl-4-(pyridin-4-yl)-1H-pyrazol-3-yl)phenyl)ethynyl)quinoline] | ≤ 10 |
| Cn1cc(-c2ccncn2)c(-c2ccc(C#Cc3ccc4ccccc4n3)cc2)n1 [Example 26] | 10 to 100 |
| C(#Cc1ccc2ccccc2n1)c1ccc(-c2ccnn2-c2ccncc2)cc1 [Example 28, 2-((4-(1-(pyridin-4-yl)-1H-pyrazol-5-yl)phenyl)ethynyl)quinoline] | ≤ 10 |
| Cn1cc(-c2ccc(C#Cc3ccc4ccccc4n3)cc2)c(-c2ccncc2)n1 [Example 36, 2-((4-(1-methyl-3-(pyridin-4-yl)-1H-pyrazol-4-yl)phenyl)ethynyl)quinoline] | ≤ 10 |
